Reference: patent US11548875B2, “Inhibitor compounds for male contraception” (University of Washington, priority 2018, dated 2023)

Assays:
[1] = biological target: T1, ALDH1A1 (Homo sapiens, UniProt P00352); experiment: Cell-based enzyme assay, retinoic acid production in ALDH1A1/H1299 cells
T1 sequence (P00352 1-501): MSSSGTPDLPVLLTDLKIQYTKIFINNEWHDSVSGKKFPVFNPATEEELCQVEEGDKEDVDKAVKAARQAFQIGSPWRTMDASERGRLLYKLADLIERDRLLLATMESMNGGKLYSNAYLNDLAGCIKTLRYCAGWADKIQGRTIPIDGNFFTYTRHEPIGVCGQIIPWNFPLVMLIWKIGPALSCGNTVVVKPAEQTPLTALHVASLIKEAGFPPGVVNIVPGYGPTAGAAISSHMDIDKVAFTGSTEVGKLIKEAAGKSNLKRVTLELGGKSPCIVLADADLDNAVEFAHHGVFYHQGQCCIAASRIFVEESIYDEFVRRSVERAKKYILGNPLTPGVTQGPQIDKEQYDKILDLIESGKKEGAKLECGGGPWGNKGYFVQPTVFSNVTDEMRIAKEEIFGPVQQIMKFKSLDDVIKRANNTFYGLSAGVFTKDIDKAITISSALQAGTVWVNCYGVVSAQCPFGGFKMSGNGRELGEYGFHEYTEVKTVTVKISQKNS
How it was run: (§1)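 ALDH1A1- or ALDH1A2-stably transfected H1299 cells grown to confluence, then treated 20 h in serum-free RPMI-1640 with 2 μM all-trans-retinal plus varying inhibitor concentrations at 37 °C. Retinoic acid in cells and media quantified; inhibition from RA levels with vs without inhibitor.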

[2] = biological target: T2, ALDH1A2 (Homo sapiens, UniProt O94788); experiment: Inhibitor screening using purified enzymes: ALDH1A2 activity, retinoic acid production by HPLC (5 uM initial screen, then IC50); format: biochemical; set-up: histidine-tag (C); made in house; host or cells: bacterial expression (pET28 vector, IPTG induction); details: purified enzyme
T2 sequence (O94788 1-518): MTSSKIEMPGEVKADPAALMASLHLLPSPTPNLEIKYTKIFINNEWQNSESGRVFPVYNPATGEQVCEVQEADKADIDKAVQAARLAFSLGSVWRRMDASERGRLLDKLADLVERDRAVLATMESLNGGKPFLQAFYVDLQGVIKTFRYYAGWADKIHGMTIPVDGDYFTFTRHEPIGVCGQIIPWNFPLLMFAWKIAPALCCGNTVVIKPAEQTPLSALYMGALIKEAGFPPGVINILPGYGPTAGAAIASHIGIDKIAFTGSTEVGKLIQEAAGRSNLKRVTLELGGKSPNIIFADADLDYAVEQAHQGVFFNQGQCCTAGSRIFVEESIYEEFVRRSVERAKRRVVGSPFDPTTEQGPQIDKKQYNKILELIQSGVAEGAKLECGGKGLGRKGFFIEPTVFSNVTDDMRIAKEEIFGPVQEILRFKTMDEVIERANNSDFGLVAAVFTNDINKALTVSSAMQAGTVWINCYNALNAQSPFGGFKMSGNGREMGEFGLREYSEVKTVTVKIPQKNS
How it was run: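 Purified His-tagged human enzymes in 10 mM HEPES pH 8.0, 150 mM KCl, 2 mM EDTA with 2 mM NAD, all-trans-retinal substrate; retinoic acid quantified by HPLC. ALDH1A2 initial screen: 1 μg enzyme, 5 μM retinal, 5 μM inhibitor, 15 min, 37° C; IC50 runs: 0.5 μg enzyme, 0.5 μg retinal, 5 min, 37° C.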

[3] = biological target: T2, ALDH1A2; experiment: Cell-based enzyme assay, retinoic acid production in ALDH1A2/H1299 cells
How it was run: as §1

SMILES: Cn1cccc1C(=O)N1CCN(c2ccc([N+](=O)[O-])c(N3CCCC3)c2)CC1 [Compound 343, [4-(4-Nitro-3-(pyrrolidin-1-yl)phenyl)piperazin-1-yl](1-methyl-1H-pyrrol-2-yl)methanone]
- EC50 [1]: < 0.5 µM
- IC50 [2]: 1.94 µM
- EC50 [3]: < 0.5 µM

SMILES: O=C(c1ccc[nH]1)N1CCN(c2ccc([N+](=O)[O-])c(N3CCCC3)c2)CC1 [Compound 344, {4-[4-Nitro-3-(pyrrolidin-1-yl)phenyl]piperazin-1-yl}(1H-pyrrol-2-yl)methanone]
- EC50 [1]: < 0.5 µM
- IC50 [2]: 0.264 µM
- EC50 [3]: < 0.5 µM

SMILES: COc1ccc(C(=O)N2CCN(c3ccc([N+](=O)[O-])c(N4CCCC4)c3)CC2)cc1 [Compound 345, 4-Methoxyphenyl-1-{4-[4-nitro-3-(pyrrolidin-1-yl)phenyl]piperazin-1-yl}methanone]
- EC50 [1]: < 0.5 µM
- IC50 [2]: 3.99 µM
- EC50 [3]: 1.19 µM

SMILES: CN(C)c1ccc(C(=O)N2CCN(c3ccc([N+](=O)[O-])c(N4CCCC4)c3)CC2)cc1 [Compound 346, 4-Dimethylaminophenyl-1-{4-[4-nitro-3-(pyrrolidin-1-yl)phenyl]piperazin-1-yl}methanone]
- EC50 [1]: < 0.5 µM
- IC50 [2]: 5.69 µM
- EC50 [3]: 1.42 µM

SMILES: CC(=O)n1cccc1C(=O)N1CCN(c2ccc([N+](=O)[O-])c(N3CCCC3)c2)CC1 [Compound 347, {4-[4-Nitro-3-(pyrrolidin-1-yl)phenyl]piperazin-1-yl}(1-acetyl-pyrrol-2yl)methanone]
- EC50 [1]: 0.33 µM
- IC50 [2]: 0.042 µM
- EC50 [3]: 0.35 µM

SMILES: Cn1cccc1C(=O)N1CCN(c2ccc(NC(=O)C(Cl)Cl)c(N3CCCC3)c2)CC1 [Compound 367, 1-[4-(4-N-Dichloroacetyl-3-(pyrrolidin-1-yl)phenyl]piperazin-1-yl](1-methyl-1H-pyrrol-2-yl)methanone]
- EC50 [1]: 0.244 µM
- IC50 [2]: 2.3 µM
- EC50 [3]: > 5 µM

SMILES: Cn1cccc1C(=O)N1CCN(c2ccc(NC(=O)CCl)c(N3CCCC3)c2)CC1 [Compound 372, 1-[4-(4-N-Chloroacetyl-3-(pyrrolidin-1-yl)phenyl]piperazin-1-yl](1-methyl-1H-pyrrol-2-yl)methanone]
- EC50 [1]: 0.069 µM
- IC50 [2]: 3.6 µM
- EC50 [3]: 0.7 µM

SMILES: Cn1cccc1C(=O)N1CCN(c2ccc(-c3ccc([N+](=O)[O-])cc3)c(N3CCCCC3)c2)CC1 [Compound 373]
- EC50 [1]: 0.37 µM
- IC50 [2]: 2.13 µM
- EC50 [3]: 0.88 µM
